Usually IC50 stands for the midpoint of a concentration-inhibition curve.

Assay [1] relates to GTL16 cells. Put plainly: Cell-proliferation assay in GTL16 cells. The class given is cell-based. Particulars: Homo sapiens, GTL 16. How it is done: Cell Proliferation Assays
Following PROTAC or diastereomer treatment of cells as indicated, culture medium was supplemented with 330 μg/ml MTS (Promega Corp., Madison, Wis.) and 25 μM phenazine methosulfate (Sigma, St. Louis, Mo.) and incubated at 37° C. Mitochondrial reduction of MTS to the formazan derivative was monitored by measuring the medium's absorbance at 490 nm using a Wallac Victor^2 platereader (Perkin-Elmer Life Sciences, Waltham, Mass.). Data analysis and statistics performed using Prism v7.0 software (GraphPad Software).

In assay [2] the test system is AKT phosphorylation. The assay is described as follows: HGF-driven AKT phosphorylation in MDA-MB-231 cells (immunoblot). The class given is cell-based. Particulars: HGF pulse. How it is done: Cells were treated with the indicated concentrations of PROTAC or corresponding inhibiting diastereomer for the specified time and then harvested in lysis buffer (25 mM Tris.HCl pH 7.5 with 1% NP-40 and 0.25% deoxycholate, supplemented with 10 mM sodium pyrophosphate, 20 mM ß-glycerophosphate, 10 mM sodium fluoride, 1 mM sodium orthovanadate, 0.1 mM phenylarsine oxide, 10 μg/ml leupeptin, 10 μg/ml pepstatin A, 30 μg/ml bestatin, 0.3 trypsin inhibitor units/ml aprotinin and 1 mM PMSF). Following centrifugation at 16,000×g for 10 min at 4° C. to pellet insoluble materials, the protein concentrations of the supernatants were quantitated by BCA assay (Thermo Fisher Scientific). Protein samples were resolved by 8% SDS-PAGE, electrophoretically transferred to nitrocellulose and probed with the antibodies listed above. Immunoblots were developed using enhanced chemiluminescence and visualized using a Bio-Rad Chemi-Doc MP Imaging System and quantitated with Image Lab v.5.2.1 software (Bio-Rad Laboratories).

As to `COc1cc2c(Oc3ccc(N(C(=O)C4(C(N)=O)CC4)c4ccc(F)cc4)cc3F)ccnc2cc1OCCCOCCCOCCC(=O)N[C@H](C(=O)N1C[C@@H](O)C[C@H]1C(=O)NCc1ccc(-c2scnc2C)cc1)C(C)(C)C` (single isomer, unassigned) [diastereomer 8], the half-maximal inhibitory concentration (IC50) in assay [1] worked out at 156 nM. The “fold higher concentration than PROTAC 7 required to completely inhibit agonist-driven AKT phosphorylation” value in assay [2] is listed as “approximately 10 fold”.

For the origin of these results see patent US10994015B2, “EGFR proteolysis targeting chimeric molecules and associated methods of use” (Arvinas Operations, Inc., priority 2016, dated 2021).
